Values of other authors, collected in publication PMC11728000, “Antitumor Activity and Multi-Target Mechanism of Phenolic Schiff Bases Bearing Methanesulfonamide Fragments: Cell Cycle Analysis and a Molecular Modeling Study” (International Journal of Molecular Sciences, 2024).

Key:
RXF 393 = tested on: RXF 393; set-up: method as in https://dtp.cancer.gov/dtpstandard/dwindex/index.jsp; conditions: ref https://dtp.cancer.gov/dtpstandard/dwindex/index.jsp; cited from earlier work
BT-549 = tested on: BT-549; set-up: method as in https://dtp.cancer.gov/dtpstandard/dwindex/index.jsp; conditions: ref https://dtp.cancer.gov/dtpstandard/dwindex/index.jsp; cited from earlier work
NCI-H522 = tested on: NCI-H522; set-up: method as in https://dtp.cancer.gov/dtpstandard/dwindex/index.jsp; conditions: ref https://dtp.cancer.gov/dtpstandard/dwindex/index.jsp; cited from earlier work
SF-539 = tested on: SF-539; set-up: method as in https://dtp.cancer.gov/dtpstandard/dwindex/index.jsp; conditions: ref https://dtp.cancer.gov/dtpstandard/dwindex/index.jsp; cited from earlier work
K-562 = tested on: K-562; set-up: method as in https://dtp.cancer.gov/dtpstandard/dwindex/index.jsp; conditions: ref https://dtp.cancer.gov/dtpstandard/dwindex/index.jsp; cited from earlier work
COLO 205 = tested on: COLO 205; set-up: method as in https://dtp.cancer.gov/dtpstandard/dwindex/index.jsp; conditions: ref https://dtp.cancer.gov/dtpstandard/dwindex/index.jsp; cited from earlier work
HOP-62 = tested on: HOP-62; set-up: method as in https://dtp.cancer.gov/dtpstandard/dwindex/index.jsp; conditions: ref https://dtp.cancer.gov/dtpstandard/dwindex/index.jsp; cited from earlier work
[1] = tested on: Renal Cancer subpanel tumor cell lines; conditions: cited from earlier work; for GI50: read-out: GI50, subpanel average, ref https://dtp.cancer.gov/dtpstandard/dwindex/index.jsp; for CC50: read-out: LC50, subpanel average, ref https://dtp.cancer.gov/dtpstandard/dwindex/index.jsp; for TGI, subpanel average: ref https://dtp.cancer.gov/dtpstandard/dwindex/index.jsp
HCT-15 = tested on: HCT-15; set-up: method as in https://dtp.cancer.gov/dtpstandard/dwindex/index.jsp; conditions: ref https://dtp.cancer.gov/dtpstandard/dwindex/index.jsp; cited from earlier work
SNB-19 = tested on: SNB-19; set-up: method as in https://dtp.cancer.gov/dtpstandard/dwindex/index.jsp; conditions: ref https://dtp.cancer.gov/dtpstandard/dwindex/index.jsp; cited from earlier work
SF-295 = tested on: SF-295; set-up: method as in https://dtp.cancer.gov/dtpstandard/dwindex/index.jsp; conditions: ref https://dtp.cancer.gov/dtpstandard/dwindex/index.jsp; cited from earlier work
[2] = tested on: Melanoma subpanel tumor cell lines; conditions: cited from earlier work; for GI50: read-out: GI50, subpanel average, ref https://dtp.cancer.gov/dtpstandard/dwindex/index.jsp; for CC50: read-out: LC50, subpanel average, ref https://dtp.cancer.gov/dtpstandard/dwindex/index.jsp; for TGI, subpanel average: ref https://dtp.cancer.gov/dtpstandard/dwindex/index.jsp
SR = tested on: SR; set-up: method as in https://dtp.cancer.gov/dtpstandard/dwindex/index.jsp; conditions: ref https://dtp.cancer.gov/dtpstandard/dwindex/index.jsp; cited from earlier work
HS 578T = tested on: HS 578T; set-up: method as in https://dtp.cancer.gov/dtpstandard/dwindex/index.jsp; conditions: ref https://dtp.cancer.gov/dtpstandard/dwindex/index.jsp; cited from earlier work
OVCAR-4 = tested on: OVCAR-4; set-up: method as in https://dtp.cancer.gov/dtpstandard/dwindex/index.jsp; conditions: ref https://dtp.cancer.gov/dtpstandard/dwindex/index.jsp; cited from earlier work
SK-OV-3 = tested on: SK-OV-3; set-up: method as in https://dtp.cancer.gov/dtpstandard/dwindex/index.jsp; conditions: ref https://dtp.cancer.gov/dtpstandard/dwindex/index.jsp; cited from earlier work
PC-3 = tested on: PC-3; set-up: method as in https://dtp.cancer.gov/dtpstandard/dwindex/index.jsp; conditions: ref https://dtp.cancer.gov/dtpstandard/dwindex/index.jsp; cited from earlier work
T-47D = tested on: T-47D; set-up: method as in https://dtp.cancer.gov/dtpstandard/dwindex/index.jsp; conditions: ref https://dtp.cancer.gov/dtpstandard/dwindex/index.jsp; cited from earlier work
[3] = tested on: NSC Lung Cancer subpanel tumor cell lines; conditions: cited from earlier work; for GI50: read-out: GI50, subpanel average, ref https://dtp.cancer.gov/dtpstandard/dwindex/index.jsp; for CC50: read-out: LC50, subpanel average, ref https://dtp.cancer.gov/dtpstandard/dwindex/index.jsp; for TGI, subpanel average: ref https://dtp.cancer.gov/dtpstandard/dwindex/index.jsp
M14 = tested on: M14; set-up: method as in https://dtp.cancer.gov/dtpstandard/dwindex/index.jsp; conditions: ref https://dtp.cancer.gov/dtpstandard/dwindex/index.jsp; cited from earlier work
UACC-62 = tested on: UACC-62; set-up: method as in https://dtp.cancer.gov/dtpstandard/dwindex/index.jsp; conditions: ref https://dtp.cancer.gov/dtpstandard/dwindex/index.jsp; cited from earlier work
SW-620 = tested on: SW-620; set-up: method as in https://dtp.cancer.gov/dtpstandard/dwindex/index.jsp; conditions: ref https://dtp.cancer.gov/dtpstandard/dwindex/index.jsp; cited from earlier work
MOLT-4 = tested on: MOLT-4; set-up: method as in https://dtp.cancer.gov/dtpstandard/dwindex/index.jsp; conditions: ref https://dtp.cancer.gov/dtpstandard/dwindex/index.jsp; cited from earlier work
SK-MEL-2 = tested on: SK-MEL-2; set-up: method as in https://dtp.cancer.gov/dtpstandard/dwindex/index.jsp; conditions: ref https://dtp.cancer.gov/dtpstandard/dwindex/index.jsp; cited from earlier work
[4] = tested on: Prostate Cancer subpanel tumor cell lines; conditions: cited from earlier work; for GI50: read-out: GI50, subpanel average, ref https://dtp.cancer.gov/dtpstandard/dwindex/index.jsp; for CC50: read-out: LC50, subpanel average, ref https://dtp.cancer.gov/dtpstandard/dwindex/index.jsp; for TGI, subpanel average: ref https://dtp.cancer.gov/dtpstandard/dwindex/index.jsp
RPMI-8226 = tested on: RPMI-8226; set-up: method as in https://dtp.cancer.gov/dtpstandard/dwindex/index.jsp; conditions: PRMI-8226; ref https://dtp.cancer.gov/dtpstandard/dwindex/index.jsp; cited from earlier work
NCI-H322M = tested on: NCI-H322M; set-up: method as in https://dtp.cancer.gov/dtpstandard/dwindex/index.jsp; conditions: ref https://dtp.cancer.gov/dtpstandard/dwindex/index.jsp; cited from earlier work

Row | Compound | GI50 (RXF 393) [µM] | GI50 (BT-549) [µM] | GI50 (NCI-H522) [µM] | GI50 (K-562) [µM] | GI50 (COLO 205) [µM] | GI50 (HOP-62) [µM] | GI50 [1] [µM] | TGI, subpanel average [1] [µM] | GI50 (HCT-15) [µM] | GI50 (SNB-19) [µM] | GI50 [2] [µM] | TGI, subpanel average [2] [µM] | GI50 (SR) [µM] | GI50 (SK-OV-3) [µM] | TGI, subpanel average [3] [µM] | GI50 (M14) [µM] | GI50 (MOLT-4) [µM] | GI50 (SK-MEL-2) [µM] | GI50 [4] [µM] | TGI, subpanel average [4] | also measured
1 | C#Cc1cccc(Nc2ncnc3cc(OCCOC)c(OCCOC)cc23)c1 [Erlotinib, erlotinib] | 3.98 | 31.6 | 1 | 31.6 | 50.1 | 15.8 | 2.46 | 42.59 | 3.98 | 12.6 | 23.7 | 77.89 | 10 | 0.5 | 73.76 | 6.31 | 25.1 | 6.31 | 20.9 | c (compounds showed values ≥ 100 μM) | GI50 (SF-539): 19.9 µM; CC50 [1]: 89.2 µM; GI50 (SF-295): 15.8 µM; CC50 [2]: 93.3 µM; GI50 (HS 578T): 6.31 µM; GI50 (OVCAR-4): 10 µM; GI50 (PC-3): 39.8 µM; GI50 (T-47D): 3.98 µM; GI50 [3]: 13.1 µM; CC50 [3]: 97.7 µM; GI50 (UACC-62): 3.16 µM; GI50 (SW-620): 79.4 µM; CC50 [4]: > 100 µM; GI50 (RPMI-8226): 25.1 µM; GI50 (NCI-H322M): 0.1 µM
2 | COc1cc2ncnc(Nc3ccc(F)c(Cl)c3)c2cc1OCCCN1CCOCC1 [Gefitinib, gefitinib] | 3.16 | 3.16 | 1 | 2.51 | 7.94 | 3.16 | 1.41 | 12.50 | 3.98 | 3.16 | 3.68 | 12.49 | 3.16 | 1 | 13.86 | 2 | 2 | 10 | 3.29 | 31.62 µM | GI50 (SF-539): 10 µM; GI50 (SF-295): 10 µM; GI50 (HS 578T): 7.94 µM; GI50 (T-47D): 7.94 µM; GI50 [3]: 2.05 µM; GI50 (UACC-62): 2 µM; GI50 (NCI-H322M): 0.063 µM
3 | CNC(=O)c1cc(Oc2ccc(NC(=O)Nc3ccc(Cl)c(C(F)(F)F)c3)cc2)ccn1 [Sorafenib, sorafenib] | 2.51 | 3.16 | 1.99 | 3.16 | 1.99 | 1.99 | 2.86 | 10.86 | 2.51 | 3.16 | 1.87 | 6.29 | 3.16 | 2.51 | 7.99 | 1.99 | 3.16 | 1.99 | 2.58 | 10.27 µM | CC50 [1]: 54.8 µM; CC50 [2]: 28.6 µM; GI50 (OVCAR-4): 3.16 µM; GI50 (PC-3): 1.99 µM; CC50 [3]: 49.1 µM; GI50 (SW-620): 2.51 µM; CC50 [4]: 69.9 µM; GI50 (NCI-H322M): 2.51 µM
